Reference: patent publication US11976280B2, “SMAC/Diablo inhibitors useful for treating cancer” (THE NATIONAL INSTITUTE FOR BIOTECHNOLOGY IN THE NEGEV LTD., priority 2017, dated 2024)
d = 2'-deoxy (DNA); r = 2'-OH (RNA)

Test system: A549 cells-derived tumors
Assay: Next-generation sequencing (NGS) of si-NT- and si-hSMAC-A-treated tumors
Assay type: in vivo, human
Experimental: Libraries were prepared by the INCPM-RNA-seq unit (Weizmann Institute, Israel). Briefly, polyA fraction (mRNA) was purified from 500 ng of total RNA, isolated as above, followed by fragmentation and generation of double stranded cDNA. End repair, a base addition, adapter ligation and PCR amplification steps were performed according to established methods. Libraries were evaluated by Qubit and TapeStation. Sequencing libraries were constructed with barcodes to allow multiplexing of 20 samples in one lane. Between 22 and 26 million reads single-end 60-bp reads were sequenced per sample on Illumina HiSeq 2500 V4 instrument.
Bioinformatics analyses were carried out at the Bioinformatics Core Facility at the National Institute for Biotechnology in the Negev, Ben-Gurion University. Raw sequence reads were assessed for quality using FASTQC and further trimmed for removal of remaining adaptors and low quality bases using Trimmomatic. The trimmed reads from each sample were separately aligned to the human and mouse genomes (GRCh38 and GRCm38.75, respectively) using STAR v2.3.0 with default settings. An average of 23.7±0.8 million reads per sample was obtained. Of these, an average of 13, 2.6, 7.8 and 0.3 million reads were mapped to human only, mouse only, both human and mouse, and none of them, respectively. After rejection of multi-mapped reads, a total of 11.5±2.5 human-specific, uniquely mapped reads, and 2.3±1.7 mouse-specific, uniquely mapped reads were subjected for further analysis. The number of aligned reads per gene per sample were counted using HTSeq count with “intersection-nonempty” (to handle reads that overlap with more than one gene) and “no stranded” as parameters. The other parameters were set to their default. Normalization and statistical analysis for differential expression were carried out using DESeq2 v1.6.3. Fold change values were converted to linear scale, with a minus sign indicating down-regulation.
Differentially expressed genes were defined as those having a p-value<0.05, and linear fold change>1.5 and <−1.5. Functional analysis was performed using the Gene Ontology system, DAVID and Expander software tools.
NGS was used to investigate changes in patterns of gene expression in si-NT-TTs and si-hSMAC-A-TTs (FIG. 10, and Tables 3-5). […] As si-hSMAC is human-specific, any effect on mouse gene expression must be mediated by the human tumor cells.
The major functional groups were changes were seen are presented below.

[1] = vs si-NT-TTs, ENDOPLASMIC AND GOLGI LUMENS
[2] = vs si-NT-TTs, ENDOPLASMIC AND GOLGI LUMENS / METABOLISM RELATED ENZYMES
[3] = vs si-NT-TTs, ER AND MITOCHONDRIA
[4] = vs si-NT-TTs, EXTRACELLULAR MATRIX

si-hSMAC-A: siRNA to human SMAC/Diablo; sense 5′AAGCGGUGUUUCUCAGAAUUGtt3′ (SEQ ID NO:20), antisense 5′AACAAUUCUGAGAAACCCGCtt3′ (SEQ ID NO:21) (sense AAGCGGUGUUUCUCAGAAUUGTT; antisense AACAAUUCUGAGAAACCCGCTT; sense: sugars from the 5' end r21 d2, backbone not given here; antisense: sugars from the 5' end r20 d2, backbone not given here)
Fold change, ACKR3-atypical chemokine receptor 3 gene expression (NGS, si-hSMAC-A- vs si-NT-treated A549 cells-derived tumors, gene ACKR3): −2.2
Fold change, C5-complement component 5 gene expression (NGS, si-hSMAC-A- vs si-NT-treated A549 cells-derived tumors, gene C5): −1.7
Fold change, C5AR1 (CD88)-complement component 5a receptor 1 gene expression (NGS, si-hSMAC-A- vs si-NT-treated A549 cells-derived tumors, gene C5AR1): −1.7
Fold change, CCL24-chemokine (C-C motif) ligand 24 gene expression (NGS, si-hSMAC-A- vs si-NT-treated A549 cells-derived tumors, gene CCL24): 1.9
Fold change, CCL28-chemokine (C-C motif) ligand 28 gene expression (NGS, si-hSMAC-A- vs si-NT-treated A549 cells-derived tumors, gene CCL28): 1.9
Fold change, CD274-(PD-L1) molecule gene expression (NGS, si-hSMAC-A- vs si-NT-treated A549 cells-derived tumors, gene CD274): −1.9
Fold change, CREB3L3-CAMP responsive element binding protein 3-like 3 gene expression (NGS, si-hSMAC-A- vs si-NT-treated A549 cells-derived tumors, gene CREB3L3): 2.0
Fold change, CX3CL1-chemokine (C-X3-C motif) ligand 1 gene expression (NGS, si-hSMAC-A- vs si-NT-treated A549 cells-derived tumors, gene CX3CL1): 1.6
Fold change, GAS6-growth arrest-specific 6 gene expression (NGS, si-hSMAC-A- vs si-NT-treated A549 cells-derived tumors, gene GAS6): −1.7
Fold change, IL1R1-interleukin 1 receptor, type I gene expression (NGS, si-hSMAC-A- vs si-NT-treated A549 cells-derived tumors, gene IL1R1): −1.6
Fold change, IL6-interleukin 6 gene expression (NGS, si-hSMAC-A- vs si-NT-treated A549 cells-derived tumors, gene IL6): −2.5
Fold change, IL18BP-interleukin 18 binding protein gene expression (NGS, si-hSMAC-A- vs si-NT-treated A549 cells-derived tumors, gene IL18BP): −1.6
Fold change, IL27RA-interleukin 27 receptor, alpha gene expression (NGS, si-hSMAC-A- vs si-NT-treated A549 cells-derived tumors, gene IL27RA): −1.6
Fold change, IRF6-interferon regulatory factor 6 gene expression (NGS, si-hSMAC-A- vs si-NT-treated A549 cells-derived tumors, gene IRF6): 1.6
Fold change, LBP-lipopolysaccharide binding protein gene expression (NGS, si-hSMAC-A- vs si-NT-treated A549 cells-derived tumors, gene LBP): −2.1
Fold change, MRC2 (ENDO180)-mannose receptor, C type 2 gene expression (NGS, si-hSMAC-A- vs si-NT-treated A549 cells-derived tumors, gene MRC2): −1.7
Fold change, OSMR-oncostatin M receptor gene expression (NGS, si-hSMAC-A- vs si-NT-treated A549 cells-derived tumors, gene OSMR): −1.7
Fold change, PROC-protein C gene expression (NGS, si-hSMAC-A- vs si-NT-treated A549 cells-derived tumors, gene PROC): 1.8
Fold change, PTGS2 (Cox-2)-prostaglandin-endoperoxide synthase 2 gene expression (NGS, si-hSMAC-A- vs si-NT-treated A549 cells-derived tumors, gene PTGS2): −1.8
Fold change, TLR3-toll-like receptor 3 gene expression (NGS, si-hSMAC-A- vs si-NT-treated A549 cells-derived tumors, gene TLR3): −1.7
Fold change, TNFAIP6 (TSG6) gene expression (NGS, si-hSMAC-A- vs si-NT-treated A549 cells-derived tumors, gene TNFAIP6): −1.6
Fold change, TNFSF14 (LIGHT) gene expression (NGS, si-hSMAC-A- vs si-NT-treated A549 cells-derived tumors, gene TNFSF14): −1.8
expression of genes associated with inflammation and the tumor microenvironment (in vivo): reduction
number of human genes down-regulated (in vivo): ~242
number of human genes up-regulated (in vivo): about 186
Fold change ACKR3 (vs si-NT-TTs, CELL MEMBRANE): −2.2 fold
Fold change BAMBI (vs si-NT-TTs, CELL MEMBRANE): 1.7 fold
Fold change C5AR1 (CD88) (vs si-NT-TTs, CELL MEMBRANE): −1.7 fold
Fold change CDH3 (vs si-NT-TTs, CELL MEMBRANE): 1.7 fold
Fold change CLDN4 (vs si-NT-TTs, CELL MEMBRANE): 2.4 fold
Fold change CLMP (vs si-NT-TTs, CELL MEMBRANE): −1.7 fold
Fold change CNTNAP2 (vs si-NT-TTs, CELL MEMBRANE): −1.8 fold
Fold change DSC2 (vs si-NT-TTs, CELL MEMBRANE): 1.6 fold
Fold change EMP1 (vs si-NT-TTs, CELL MEMBRANE): 1.8 fold
Fold change ITGA1 (CD49a) (vs si-NT-TTs, CELL MEMBRANE): −1.9 fold
Fold change TNS1 (vs si-NT-TTs, CELL MEMBRANE): −1.6 fold
Fold change ABCC6 [1]: −2.3 fold
Fold change AGR3 [1]: 4.1 fold
Fold change AHCYL2 [1]: −1.7 fold
Fold change BACE1 [1]: −1.5 fold
Fold change CEMIP [1]: −3.6 fold
Fold change CHERP [1]: −1.7 fold
Fold change CLGN [1]: −1.9 fold
Fold change COX10-AS1 [1]: −2.1 fold
Fold change CYP26B1 [1]: −1.8 fold
Fold change FAM20A [1]: −4.4 fold
Fold change FOXRED2 [1]: −1.5 fold
Fold change ITPR1 [1]: −1.7 fold
Fold change NCK2 [1]: 2.0 fold
Fold change P4HA3 [1]: −1.9 fold
Fold change PCSK5 [1]: −2.3 fold
Fold change PPAP2B [1]: −1.8 fold
Fold change PTGS2 (COX-2) [1]: −1.8 fold
Fold change RIC3 [1]: −2.7 fold
Fold change RYR1 [1]: 2.5 fold
Fold change SEC61G [1]: 1.8 fold
Fold change TM4SF20 [1]: −1.7 fold
Fold change TMEM147-AS [1]: −1.7 fold
Fold change UGT1A7 [1]: −3.5 fold
Fold change UGT1A9 [1]: −17.2 fold
Fold change ACAD10 [2]: −1.7 fold
Fold change H6PD (GDH) [2]: −1.6 fold
Fold change KLK6 [3]: 25.83 fold
Fold change SGK1 [3]: −1.7 fold
Fold change CD9 (TSPAN29) (vs si-NT-TTs, EXOSOMES): 1.5 fold
Fold change CD63 (TSPAN30) (vs si-NT-TTs, EXOSOMES): 3.5 fold
Fold change CD274 (PD-L1) (vs si-NT-TTs, EXOSOMES): −1.9 fold
Fold change CEACAM5 (CD66e) (vs si-NT-TTs, EXOSOMES): 2.2 fold
Fold change EPCAM (vs si-NT-TTs, EXOSOMES): 2.7 fold
Fold change FSTL1 (vs si-NT-TTs, EXOSOMES): −1.8 fold
Fold change GAS6 (vs si-NT-TTs, EXOSOMES): −1.7 fold
Fold change GP1BA (vs si-NT-TTs, EXOSOMES): −1.7 fold
Fold change HSPG2 (Perlecan) (vs si-NT-TTs, EXOSOMES): −1.7 fold
Fold change IGFBP7 (vs si-NT-TTs, EXOSOMES): −1.8 fold
Fold change NID2 (vs si-NT-TTs, EXOSOMES): −2.1 fold
Fold change RAB17 (vs si-NT-TTs, EXOSOMES): 1.9 fold
Fold change TSPAN8 (vs si-NT-TTs, EXOSOMES): 1.6 fold
Fold change TSPAN13 (vs si-NT-TTs, EXOSOMES): 1.8 fold
Fold change VAMP8 (vs si-NT-TTs, EXOSOMES): 1.9 fold
Fold change CANT1 (vs si-NT-TTs, EXOSOMES / METABOLISM RELATED ENZYMES): 1.5 fold
Fold change ABI3BP (TARSH) [4]: −2.4 fold
Fold change ADAMTS9 [4]: −2.2 fold
Fold change BMP2 [4]: −1.8 fold
Fold change BMPER [4]: −1.7 fold
Fold change CCBE1 [4]: −2.7 fold
Fold change COL4A1 [4]: −2.2 fold
Fold change COL4A2 [4]: −1.8 fold
Fold change COL5A1 [4]: −1.5 fold
Fold change COL12A1 [4]: −1.5 fold
Fold change COL17A1 (BP180) [4]: 2.1 fold
Fold change EDIL3 (Del1) [4]: −2.5 fold
